Measured values from ChEMBL document CHEMBL3112435, “1H-1,2,3-Triazole-tethered isatin-7-chloroquinoline and 3-hydroxy-indole-7-chloroquinoline conjugates: synthesis and antimalarial evaluation” (Bioorg Med Chem Lett, 2014).

The compounds below were run on Plasmodium falciparum (assay: Antimalarial activity against chloroquine-resistant Plasmodium falciparum W2 after 48 hrs by flow cytometry). Settings: W2, 48 h.
Type: functional, organism-based

| SMILES | IC50 [nM] |
| --- | --- |
| Cc1ccc2c(c1)C(=O)C(=O)N2CCCn1cc(COc2ccc(/C=N/Nc3ccnc4cc(Cl)ccc34)cc2)nn1 | 163 |
| Cc1ccc2c(c1)C(O)C(=O)N2CCCCn1cc(COc2ccc(CNNc3ccnc4cc(Cl)ccc34)cc2)nn1 (configuration not stated) | 326 |
| O=C1C(=O)N(CCCCn2cc(COc3ccc(/C=N/Nc4ccnc5cc(Cl)ccc45)cc3)nn2)c2ccc(F)cc21 | 134 |
| O=Cc1ccc(OCc2cn(CCN3C(=O)C(=O)c4cc(Cl)ccc43)nn2)cc1 | > 10000 |
| O=C1C(=O)N(CCCCn2cc(COc3ccc(/C=N/Nc4ccnc5cc(Cl)ccc45)cc3)nn2)c2ccc(Cl)cc21 | 141 |
| O=C1C(O)c2ccccc2N1CCCCn1cc(COc2ccc(CNNc3ccnc4cc(Cl)ccc34)cc2)nn1 (configuration not stated) | 69 |
| O=C1C(O)c2cc(Cl)ccc2N1CCCn1cc(COc2ccc(CNNc3ccnc4cc(Cl)ccc34)cc2)nn1 (configuration not stated) | 350 |
| C[C@@H]1CC[C@H]2[C@@H](C)C(=O)O[C@@H]3O[C@@]4(C)CC[C@@H]1[C@]32OO4 [ARTEMISININ] | 7 |
| O=Cc1ccc(OCc2cn(CCCCN3C(=O)C(=O)c4cc(Cl)ccc43)nn2)cc1 | > 10000 |
| O=C1C(=O)N(CCn2cc(COc3ccc(/C=N/Nc4ccnc5cc(Cl)ccc45)cc3)nn2)c2ccccc21 | 118 |
| O=C1C(=O)N(CCCn2cc(COc3ccc(/C=N/Nc4ccnc5cc(Cl)ccc45)cc3)nn2)c2ccccc21 | 165 |
| O=Cc1ccc(OCc2cn(CCCCN3C(=O)C(=O)c4cc(F)ccc43)nn2)cc1 | > 10000 |
| Cc1ccc2c(c1)C(=O)C(=O)N2CCCn1cc(COc2ccc(C=O)cc2)nn1 | > 10000 |
| O=C1C(=O)N(CCCn2cc(COc3ccc(/C=N/Nc4ccnc5cc(Cl)ccc45)cc3)nn2)c2ccc(F)cc21 | 288 |
| O=C1C(O)c2cc(Cl)ccc2N1CCn1cc(COc2ccc(CNNc3ccnc4cc(Cl)ccc34)cc2)nn1 (configuration not stated) | 182 |
| O=Cc1ccc(OCc2cn(CCCCN3C(=O)C(=O)c4ccccc43)nn2)cc1 | > 10000 |
| O=Cc1ccc(OCc2cn(CCN3C(=O)C(=O)c4ccccc43)nn2)cc1 | > 10000 |
| O=C1C(O)c2ccccc2N1CCn1cc(COc2ccc(CNNc3ccnc4cc(Cl)ccc34)cc2)nn1 (configuration not stated) | 128 |
| O=C1C(O)c2cc(F)ccc2N1CCCn1cc(COc2ccc(CNNc3ccnc4cc(Cl)ccc34)cc2)nn1 (configuration not stated) | 206 |

| SMILES | IC50 [nM] |
| --- | --- |
| O=C1C(O)c2ccccc2N1CCCn1cc(COc2ccc(CNNc3ccnc4cc(Cl)ccc34)cc2)nn1 (configuration not stated) | 339 |
| Cc1ccc2c(c1)C(O)C(=O)N2CCCn1cc(COc2ccc(CNNc3ccnc4cc(Cl)ccc34)cc2)nn1 (configuration not stated) | 509 |
| O=C1C(=O)N(CCCn2cc(COc3ccc(/C=N/Nc4ccnc5cc(Cl)ccc45)cc3)nn2)c2ccc(Cl)cc21 | 346 |
| Cc1ccc2c(c1)C(=O)C(=O)N2CCCCn1cc(COc2ccc(/C=N/Nc3ccnc4cc(Cl)ccc34)cc2)nn1 | 204 |
| Cc1ccc2c(c1)C(O)C(=O)N2CCn1cc(COc2ccc(CNNc3ccnc4cc(Cl)ccc34)cc2)nn1 (configuration not stated) | 320 |
| O=C1C(O)c2cc(F)ccc2N1CCCCn1cc(COc2ccc(CNNc3ccnc4cc(Cl)ccc34)cc2)nn1 (configuration not stated) | 164 |
| O=Cc1ccc(OCc2cn(CCCN3C(=O)C(=O)c4cc(Cl)ccc43)nn2)cc1 | > 10000 |
| O=Cc1ccc(OCc2cn(CCCN3C(=O)C(=O)c4ccccc43)nn2)cc1 | > 10000 |
| O=C1C(O)c2cc(F)ccc2N1CCn1cc(COc2ccc(CNNc3ccnc4cc(Cl)ccc34)cc2)nn1 (configuration not stated) | 112 |
| O=Cc1ccc(OCc2cn(CCN3C(=O)C(=O)c4cc(F)ccc43)nn2)cc1 | > 10000 |
| O=C1C(O)c2cc(Cl)ccc2N1CCCCn1cc(COc2ccc(CNNc3ccnc4cc(Cl)ccc34)cc2)nn1 (configuration not stated) | 168 |
| Cc1ccc2c(c1)C(=O)C(=O)N2CCCCn1cc(COc2ccc(C=O)cc2)nn1 | 6420 |
| O=Cc1ccc(OCc2cn(CCCN3C(=O)C(=O)c4cc(F)ccc43)nn2)cc1 | > 10000 |
| Cc1ccc2c(c1)C(=O)C(=O)N2CCn1cc(COc2ccc(/C=N/Nc3ccnc4cc(Cl)ccc34)cc2)nn1 | 185 |
| O=C1C(=O)N(CCn2cc(COc3ccc(/C=N/Nc4ccnc5cc(Cl)ccc45)cc3)nn2)c2ccc(F)cc21 | 190 |
| Cc1ccc2c(c1)C(=O)C(=O)N2CCn1cc(COc2ccc(C=O)cc2)nn1 | > 10000 |
| O=C1C(=O)N(CCn2cc(COc3ccc(/C=N/Nc4ccnc5cc(Cl)ccc45)cc3)nn2)c2ccc(Cl)cc21 | 263 |
| O=C1C(=O)N(CCCCn2cc(COc3ccc(/C=N/Nc4ccnc5cc(Cl)ccc45)cc3)nn2)c2ccccc21 | 119 |
